For test [1], the system named is S. suis. The experiment in a line: microbe, parasite or virus in culture. Further details: species or system Streptococcus suis; microtiter broth dilution MIC of natural products against S. suis. Here is the method:
To find potent Ss-SrtA inhibitors, the 11 natural products listed in S1 Table were selected for experimental validation using purified recombinant Ss-SrtA. […] Using the microtiter broth dilution method, we measured the MIC values of all these natural products to be >500 μM (S1 Table). […] S. suis strains were cultured in Todd–Hewitt broth (THB; Oxoid Ltd.) without shaking or Todd–Hewitt broth agar plates at 37°C with 5% CO2. E. coli and S. aureus strains were grown in Luria-Bertani (LB) medium at 37°C with shaking at 200 rpm or plated on LB agar. If required, cultures were supplemented with antibiotics at the following concentrations: erythromycin, 3 μg ml^−1 for S. aureus; ampicillin, 100 μg ml^−1 for E. coli.

The target in test [2] is T1, Sortase A (Ss-SrtA) (Streptococcus suis, UniProt Q8VUP7).
T1 construct: residues N24-Q235, C-terminal His-tag
T1 sequence (Q8VUP7 entry or part of it): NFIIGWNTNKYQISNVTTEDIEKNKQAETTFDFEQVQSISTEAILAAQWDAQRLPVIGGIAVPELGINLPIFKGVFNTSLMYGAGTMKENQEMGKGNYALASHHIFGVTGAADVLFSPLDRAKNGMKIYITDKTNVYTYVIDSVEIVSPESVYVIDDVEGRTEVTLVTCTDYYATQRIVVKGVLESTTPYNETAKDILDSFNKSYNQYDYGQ
The experiment in a line: fluorescence-quenched peptide (abz-LPATG-dnp) hydrolysis assay with recombinant enzyme. The test is classed as biochemical.

Test [3] addresses T2, Sortase A (Sa-SrtA) (Staphylococcus aureus, UniProt Q2FV99).
T2 construct: endogenous, S. aureus Newman D2C cells
Nature of the test: SrtA-dependent fluorescent peptide incorporation in live cells, flow cytometry; […] inhibition at […]. The test is classed as cell-based.

The target of test [4] is T2, Sortase A (Sa-SrtA). Described as above. The test is classed as cell-based. This is another data set of the same source.
For test [5], the target named is T2, Sortase A (Sa-SrtA). The description is as above. The test is classed as cell-based. This is another data set of the same source.
Test [6] has as its target Streptococcus suis sortase A (recombinant, residues N24-Q235 with C-terminal His-tag) (Streptococcus suis).
The mark [7] stands for this setting: Streptococcus suis, read-out: MIC.

Experimental findings from paper PMC5358767 (PLoS ONE, 2017) are described below.

Where a name gives a salt, the structure may show the parent alone. Read-outs that look alike come from different tables or passages of the source. abz = not defined here; dnp = not defined here Where only a bound is given, the exact number is not on record here.

T2 sequence (Q2FV99 whole entry): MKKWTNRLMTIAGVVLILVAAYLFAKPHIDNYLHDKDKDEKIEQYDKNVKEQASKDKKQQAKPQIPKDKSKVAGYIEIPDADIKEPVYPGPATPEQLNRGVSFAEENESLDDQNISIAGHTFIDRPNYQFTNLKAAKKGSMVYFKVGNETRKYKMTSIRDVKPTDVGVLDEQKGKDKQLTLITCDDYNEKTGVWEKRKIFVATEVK

As to `COc1ccc2cc3[n+](cc2c1OC)CCc1cc2c(cc1-3)OCO2` [berberine hydrochloride], in test [1] (setting [7]), the MIC is > 500 µM. Besides, the IC50 in test [2] is < 100 µM.

As to `COc1c(O)cc(O)c2c(=O)cc(-c3ccccc3)oc12` [Wogonin], the MIC in test [1] (setting [7]) was > 500 µM.

Regarding `C[C@@H]1O[C@@H](OC[C@H]2O[C@@H](Oc3c(-c4ccc(O)c(O)c4)oc4cc(O)cc(O)c4c3=O)[C@H](O)[C@@H](O)[C@@H]2O)[C@H](O)[C@H](O)[C@H]1O` [Rutin], the MIC in test [1] (setting [7]) was > 500 µM.

As to `COc1cc(/C=C/C(=O)CC(=O)/C=C/c2ccc(O)c(OC)c2)ccc1O` [curcumin], the MIC in test [1] (setting [7]) was > 500 µM. Besides, the half-maximal inhibitory concentration (IC50) in test [2] is < 100 µM.

Regarding `O=c1cc(-c2ccccc2)oc2cc(O)c(O)c(O)c12` [Baicalein], the MIC in test [1] (setting [7]) was > 500 µM.

As to `C[C@@H]1O[C@@H](O[C@@H]2[C@@H](O)[C@H](OCCc3ccc(O)c(O)c3)O[C@H](CO)[C@H]2OC(=O)/C=C/c2ccc(O)c(O)c2)[C@H](O)[C@H](O)[C@H]1O` [acteoside], the MIC in test [1] (setting [7]) is > 500 µM. In addition, testing at 200 µM in test [3] gave an inhibition of 86%. Also, in test [2], the IC50 stood at 36.3 ± 1.3 µM.

On to `O=c1c(O)c(-c2ccc(O)c(O)c2)oc2cc(O)cc(O)c12` [quercetin], for which the MIC in test [1] (setting [7]) is > 500 µM. For the same molecule, the IC50 in test [2] is < 100 µM.

With `O=C(O)[C@H]1O[C@@H](Oc2cc3oc(-c4ccccc4)cc(=O)c3c(O)c2O)[C@H](O)[C@@H](O)[C@@H]1O` [baicalin], the MIC in test [1] (setting [7]) was > 500 µM. The IC50 in test [2] worked out at 85.4 ± 1.5 µM. Besides, testing at 200 µM in test [4] gave an inhibition of 45%.

`O=c1c(O[C@@H]2O[C@H](CO)[C@@H](O)[C@H](O)[C@H]2O)c(-c2ccc(O)c(O)c2)oc2cc(O)cc(O)c12` [isoquercitrin]: in test [1] (setting [7]), the MIC was > 500 µM. The molecule further showed an inhibition at 200 µM in test [5] of 28%.

On to `O=c1cc(-c2ccc(O)cc2)oc2c([C@@H]3O[C@H](CO)[C@@H](O)[C@H](O)[C@H]3O)c(O)cc(O)c12` [Vitexin], for which the MIC in test [1] (inhibitor) was >500 µM.

Consider `CCCCC[C@H](O)CC(=O)CCc1ccc(O)c(OC)c1` [6-Gingerol], for which, in test [1] (setting [7]), the MIC was > 500 µM.

Regarding abz-LPATG-dnp (reading uncertain; also: printed as abz-LPATG-dnp) [abz-LPATG-dnp (internally quenched fluorescent peptide substrate)], the Km for the hydrolysis of abz-LPATG-dnp by purified Ss-SrtA (fluorescence increase of the quenched peptide; substrate 0.375-64 μM; 50 mM Tris·HCl, 150 mM NaCl, pH 7.5, 37°C) in test [6] is 6.7 μM.
